Assay results reported in patent US20130216590A1, “TOPICAL ANTIVIRAL FORMULATIONS FOR PREVENTION OF TRANSMISSION OF HSV-2” (priority 2010, published 2013).
Converted amounts (≈) assume the structure as drawn.

What was measured:
Assay type in all cases: cell-based
HSV-2 (G) = assay: Organotypic epithelial raft cultures infected with HSV-2
Method: (§1) For the preparation of epidermal equivalents, a collagen matrix solution was made with collagen mixed on ice with 10-fold concentrated HAM's F12 media, 10-fold reconstitution buffer and Swiss 3T3 J2 fibroblasts. One milliliter of the collagen matrix solution was poured into the wells of 24-well microtiter plates. After gel equilibration with 1 ml of growth medium overnight at 37° C., 2.5×10^5 PHK cells were seeded on the top of the gels and maintained submerged for 24-48 hours. The collagen rafts were raised and placed onto stainless-steel grids at the interface between air and liquid culture medium. The growth medium was a mixture of ⅓ HAM F12 and ⅔ Dulbecco's modified Eagle's medium, with the same supplements as used for the Keratinocyte-SFM. Epithelial cells were allowed to stratify, the medium being replaced every 2-3 days. For the evaluation of the antiviral effects of the compounds in the raft system, two series of rafts were run in parallel, one for histological examination and the other one for quantification of viral production by a plaque reduction assay. Rafts were infected with 5,000 PFU of HSV-1 (KOS) or […] strains after 10 days post-lifting and then the medium was replaced by medium containing different dilutions of the compounds. The growth medium containing the different concentrations of the compounds was changed two days later and 3 days later (after 15 days of differentiation), one series of rafts was fixed in 10% buffered formalin, embedded in paraffin and stained with hematoxylin and eosin for histological evaluation. Another series of rafts was used to quantify virus production. For that purpose, each raft was frozen in 3 ml phosphate buffer saline (PBS) and thawed to release the virus from the infected epithelium. Supernatants were clarified by centrifugation at 1,800 rpm and titrated by a plaque assay in HEL cell cultures. Virus production in each raft was then calculated. Two rafts were used for each drug concentration to determine the effects of the compounds on virus yield.

[1] = system: organotypic raft cultures of keratinocytes; assay: Toxic effects in organotypic epithelial raft cultures; conditions: highest concentration, 200 μg/ml
Method: as §1

HIV-1 (NL4.3) = assay: Co-infection of TZM-bl cells with HIV-1 and HSV-2: LTR-driven luciferase; conditions: presence or absence of an ongoing HSV-2 infection; data not shown
Method: The TZM-bl cell line is derived from HeLa cells and expresses high levels of CD4, CCR5 and CXCR4. In addition, this cell line is stably transduced with a LTR-driven firefly luciferase and E. coli-galactosidase gene (15). In a 96-well tray, 10,000 TZM-bl cells were seeded on day 1. […] Next, 100 μl of a virus suspension containing either HIV-1 (NL4.3), HSV-2 (G) or both viruses together was administered. Two to three days post infection, HIV-1 infection was monitored based on the determination of luciferase activity. For this means, 100 μl of culture supernatant was removed and 100 μl of Bright-Glo Luciferase Assay Substrate (Promega, Madison, USA) was added. The luminescence signal was measured using the Safire 2 microtiter plate reader (Tecan, Männedorf, Switzerland). A control condition containing only mock-infected cells was also included to measure the background luminescence levels. Three days post infection, HSV-2-induced cytopathicity was recorded microscopically based on giant cell formation.

[2] = system: HSV-2 strain MS (HSV-2MS); assay: Human ex vivo tonsillar tissue, HSV DNA release by real-time PCR
HSV-2G = assay: Human ex vivo tonsillar tissue coinfected with HSV-2G and HIV-1: HSV-2G DNA release; conditions: 66 μg/ml, coinfected with HIV-1
Method: (§2) For each experimental condition 16 tissue blocks were immersed in 500 μl of a HSV-2 (strain G) suspension for 2 hours at 37° C., washed three times with PBS and then placed on the gelfoam rafts. Tenofovir was added during the infection and replenished at each culture medium change. Herpes simplex viral replication was evaluated by the release of viral DNA into the culture medium as measured by quantitative real-time PCR (17). HIV-1 replication was evaluated by the release of p24 capsid antigen using a bead-based assay (18).

HSV-2 = assay: Herpes virus infection of primary monocyte/macrophage (M/M) cell cultures
Method: Human peripheral blood mononuclear cells (PBMCs) were obtained from the blood of healthy seronegative donors by Ficoll-Hypaque density gradient centrifugation. […] Monocyte/macrophage (M/M) cells were separated by adherence onto plastic. […] African green monkey fibroblastoid kidney (Vero) cells highly sensitive to the cytopathic effect of HSV-2 were grown in RPMI medium supplemented with 10% heat inactivated FCS and were used in infectious virus titration assays.
Macrophage cultures were then infected with HSV-2 (100 CCID50) in the presence of the test compounds. After 2 hrs virus adsorption, the cultures were extensively washed to remove any residual virus particles. Fresh culture medium and compounds, at the indicated concentrations, were then added to the cultures. […] Appropriate positive (infected but not treated M/M) and mock-infected negative (uninfected and untreated M/M) controls were run for each experiment as well. All assays were performed in triplicate. […] Therefore, the potential inhibitory effect of the compounds on the replication of HSV-2 was evaluated 6 days after infection. The amount of infectious virus in the supernatants was determined by a classical limited dilution assay on Vero cell cultures. The titers of produced virus were calculated according to the Reed and Muench method and expressed as 50% tissue culture infective dose per ml (TCID50/ml).
The inhibition capacity was expressed in % and calculated considering as value 100 being the virus production in virus-infected untreated cultures.

HSV-1 strain F (HSV-1F) = assay: Human ex vivo tonsillar tissue, HSV DNA release by real-time PCR; conditions: Human alphaherpesvirus 1, read-out: EC50, suppression of replication
HSV-2 (strain G) = assay: Human ex vivo cervico-vaginal tissue, HSV-2 DNA release; conditions: 166 μg/ml
Method: as §2

C[C@H](Cn1cnc2c(N)ncnc21)OCP(=O)(O)O [tenofovir, (R)-9-(2-phosphonylmethoxypropyl)adenine]
protection of the epithelium against HSV-2-induced cytopathicity (morphological analysis) (HSV-2 (G); 2 μg/ml): inactive
protection of the epithelium against HSV-2-induced cytopathicity (morphological analysis) (HSV-2 (G); 20 μg/ml and 5 μg/ml): partially protective
protection of the epithelium against HSV-2-induced cytopathicity (morphological analysis) (HSV-2 (G); 200 μg/ml and 50 μg/ml): protected the entire epithelium
reduction in virus production (HSV-2 (G); HSV-2, 20 μg/ml): 0.9 log
reduction in virus yield (HSV-2 (G); HSV-2, 50 μg/ml): 1.75 logs
log reduction in virus production (PFU) per raft (HSV-2 (G); HSV-2, 200 μg/ml): 5.4 log
reduction of virus replication in the rafts (HSV-2 (G); lower concentrations (below 20 μg/ml)): unable to reduce virus replication
toxic effects (increase in number of dead cells or alteration of differentiation) [1]: No toxic effects
suppression of HIV-1 (HIV-1 (NL4.3)): equally suppressed
reduction of replication compared to infected donor matched-untreated tissue ([2]; 66 μg/ml, HSV-2MS): 89±2%
release of viral DNA in culture medium ([2]; 66 μg/ml, day 9 post infection, IQR 5.7-6.1, untreated 7.3): 5.8 log10 DNA copies/ml
EC50 ([2]; Human alphaherpesvirus 2, read-out: EC50, suppression of replication): 19 µg/mL (≈ 66.2 µM)
HSV-2G DNA release into culture medium (HSV-2G; IQR 4.3-5.7, untreated 7.3): 5 log10 copies/ml
suppression of HSV-2G replication (HSV-2G; n=6): 96±1%
CPE (HSV-2; 1 μg/ml or 0.2 μg/ml, day 6): 70-80%
virus titer in supernatants (HSV-2; 1 μg/ml or 0.2 μg/ml, day 6): 2.5×10^5 TCID50/ml
visible CPE (HSV-2; 5 μg/ml, day 6): 30%
visible CPE (HSV-2; 20 μg/ml, day 6): ~5%
virus titers in the culture supernatants versus untreated controls (HSV-2; 20 and 5 μg/ml, day 6): more than one log lower
virus replication (HSV-2; 500 and 100 μg/ml, day 6 post virus infection): completely suppressed virus replication
EC50 (HSV-1 strain F (HSV-1F)): 7 µg/mL (≈ 24.4 µM)
viral production (cumulative viral DNA release) (HSV-2 (strain G); 12 days of culture, IQR 4.8-5.7, untreated 6.6): 5.5 log10 copies/mL
reduction of viral replication (averaged over experiments) (HSV-2 (strain G); n=5): 78±9%
